Measurements reported in patent publication US7022737B2, “Manipulating nitrosative stress to kill pathologic microbes, pathologic helminths and pathologically proliferating cells or to upregulate nitrosative stress defenses” (Duke University, priority 1996, dated 2006).
Counter-ions that a name gives are not always drawn.

Legend:
[1] = tested on: Mycobacterium tuberculosis; settings: in vivo
E. coli = test: Patients with E. coli septicemia; assay type: in vivo
Method: A person with fever, mild hypotension, and moderate hematuria has blood and urine cultures that are positive for E. coli. They are given a diagnosis of E. coli septicemia and urinary tract infection. […]
A person with E. coli sepsis presents feeling nauseated and gravely ill. However, their blood pressure is stable. They receive a standard regimen of IV antibiotics, including ampicillin and gentamicin as well as the siderophore ferrioxamine B at a dose of 10 mg/kg.
A person with E. coli sepsis presents with a blood pressure of 80/50 mm Hg. Broad spectrum antibiotics are initiated including ampicillin and gentamicin. […] The patient then receives an intravenous dose of nitrosated chloramphenicol, 12.5 mg four times/day IV together with methylene blue IV at a dose of 5 mg/kg as well as fluid support.

restenosis [2] = test: Patients with coronary stenosis treated to prevent restenosis; assay type: in vivo
Source text: BSO therapy is continued for one week.
A person with blue eyes and gray hair presents with chest pain. […] The patient undergoes balloon angioplasty and placement of a Palmaz-Schatz stent, which is P^32-implanted and coated with a cyclodextran polymer to which BSO is attached by an ester linkage.
A patient similar to the one described above undergoes balloon angioplasty and placement of a Palmaz-Schatz stent which is coated with cyclodextran polymer to which ethyl maleate is attached by an ester linkage. […]
A person with restenosis six months post angioplasty has a Palmaz-Schatz stent placed. The stent is coated with a porous polymer containing 10% of the siderophore ferrioxamine B and 0.1% each of interleukin-1 and interferon-gamma. The latter agents induce the local expression of the inducible isoform of nitric oxide synthase. […]

glutamine synthetase = settings: mammalian systems, literature; cited from earlier work
[3] = biological target: T1, gamma-glutamylcysteinyl synthetase (gamma-GCS) (Rattus norvegicus, UniProt P19468); settings: mammalian systems, literature; cited from earlier work
T1 sequence (P19468 1-637): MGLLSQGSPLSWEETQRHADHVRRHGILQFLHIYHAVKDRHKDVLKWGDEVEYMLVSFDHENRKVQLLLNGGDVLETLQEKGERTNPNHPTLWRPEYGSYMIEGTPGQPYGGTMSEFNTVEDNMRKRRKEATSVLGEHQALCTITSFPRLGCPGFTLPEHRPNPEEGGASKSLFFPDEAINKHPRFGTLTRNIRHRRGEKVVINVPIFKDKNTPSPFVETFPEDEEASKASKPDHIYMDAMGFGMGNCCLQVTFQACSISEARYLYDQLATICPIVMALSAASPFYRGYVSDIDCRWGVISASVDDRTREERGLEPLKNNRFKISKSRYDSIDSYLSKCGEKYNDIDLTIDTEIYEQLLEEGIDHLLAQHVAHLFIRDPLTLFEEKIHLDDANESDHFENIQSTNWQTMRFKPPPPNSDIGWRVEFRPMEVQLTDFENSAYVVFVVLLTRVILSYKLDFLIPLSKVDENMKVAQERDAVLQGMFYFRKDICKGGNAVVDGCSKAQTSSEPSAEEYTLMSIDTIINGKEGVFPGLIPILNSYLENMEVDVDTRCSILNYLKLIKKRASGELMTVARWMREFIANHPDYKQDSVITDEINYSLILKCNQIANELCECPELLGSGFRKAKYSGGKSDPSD
T1 sequence (P48508 1-274 partner): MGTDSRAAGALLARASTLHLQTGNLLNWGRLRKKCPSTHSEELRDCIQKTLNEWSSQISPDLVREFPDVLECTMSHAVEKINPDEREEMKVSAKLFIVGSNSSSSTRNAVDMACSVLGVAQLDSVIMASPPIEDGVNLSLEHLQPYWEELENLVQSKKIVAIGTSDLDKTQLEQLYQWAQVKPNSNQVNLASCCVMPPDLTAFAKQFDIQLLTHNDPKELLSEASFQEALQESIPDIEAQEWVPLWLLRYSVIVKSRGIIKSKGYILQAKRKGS

oral thrush = test: Patients with oral thrush; assay type: in vivo; settings: 5 cc of 10 mM solution
Method: An immunocompromised person who is status-post recent chemotherapy develops oral thrush.
A person with leukemia develops oral thrush and is given 2 cc of 50 mM S-nitrosoglutathione, swish and spit, three times/day.
An immunocompromised person with HIV and a low CD4 count develops oral thrush. They are given 5 cc of a solution of 10 mM nitrate.

restenosis [4] = test: Patients with coronary stenosis treated to prevent restenosis; assay type: in vivo; remark: listed apart in the source
Salmonella = test: Patients with Salmonella septicemia or gastroenteritis; assay type: in vivo; settings: septicemia; sodium nitrate 200 mg/kg i.v. twice a day and ethacrynic acid 50 mg four times a day p.o.
[5] = tested on: benign prostatic hypertrophy; test: Patients with benign prostatic hypertrophy; assay type: in vivo; settings: prostate-implanted polymer pellets releasing each agent at 1 μmol/hr
Source text: A person presents with a history of urinary hesitancy and multiple awakenings during the night. They are given a diagnosis of benign prostatic hypertrophy. Under stereotactic guidance, the patient's enlarged prostate gland is implanted with several porus polymer pellets designed to slowly release L-buthionine-S-sulfoximine (1 μmol/hr) and S-nitrosocysteine (1 μmol/hr). […] They then have nearly normal urine flow and usually wakes no more than once per night.
A similar patient with benign prostatic hypertrophy and very marked enlargement of their prostate is treated with NO-substituted finasteride (NO-substituted Proscar; 5 mg/day). NO-substitution is accomplished by replacement of the tert-butyl amine moiety of finasteride with S-nitroso-β-thio-tert-butyl amine.
A person with benign prostatic hypertrophy is treated with Finisteride (Proscar: 5 mg/day) and oral buthionine-S-sulfoximine at a dose of 10 mmol/kg four time/day.

[6] = tested on: wild type E. coli and glutathione deficient E. coli; test: Bacterial growth (O.D. 600 nm) with nitrosating agent; assay type: cell-based
Method: In a first experiment, six runs were carried out. In three of the runs, wild type E. coli were incubated in bacterial growth medium. In the other three runs, E. coli lacking a gene essential for glutathione production (in particular, lacking a gene expressing gamma-glutamylcysteine synthetase, hereinafter glutathione deficient E. coli) were incubated in the bacterial growth medium. In one run, for each of the wild type E. coli and the glutathione deficient E. coli, no nitrosating agent was employed. In one run, for each of the wild type E. coli and the glutathione deficient E. coli, 0.5 mM S-nitrosocysteine (a nitrosating agent) was added after two hours. In one run, for each of the wild type E. coli and the glutathione deficient E. coli, 0.2 mM S-nitrosocysteine was added initially and 0.5 mM S-nitrosocysteine was added at the two hour mark. In each run, starting at the two hour mark and every 15 or 30 minutes thereafter, bacterial cell density (i.e., growth) was measured. […]
In a second experiment, six runs were carried out the same as in the first experiment. In this case, the results are shown in FIG. 2 where bacterial growth (measured as optical density (O.D.) 600 nm) is plotted on a log axis versus time (after two hours) and where “wt” and the plus and minus sign mean the same as in FIG. 1 and “gsh^−” means glutathione deficient E. coli. […]

[7] = tested on: mixed flora and gram-negativerods; test: Diabetic patient with infected skin ulcer; assay type: in vivo; settings: topical cream with S-nitrosoglutathione, oxidized glutathione and dinitrophenacyl glutathione
Source text: A patient with diabetes develops a skin ulcer on the lower aspect of their left leg. Cultures grow mixed flora and gram-negativerods. A topical cream is applied that contains S-nitrosoglutathione, oxidized glutathione and the glutathione S-conjugate dinitrophenacyl glutathione.

[8] = stent coated with porous polymer containing 10% ferrioxamine B and 0.1% each of interleukin-1 and interferon-gamma
[9] = 32P-implanted stent, S-nitrosocysteine and ethacrynic acid 50–200 mg twice a day p.o.

CC[C@@H](CO)NCCN[C@@H](CC)CO [ethambutol]
adverse effects [1]: loss of color vision and gastrointestinal intolerance

CC(=O)N([O-])CCCCCNC(=O)CCC(=O)N([O-])CCCCCNC(=O)CCC(=O)N([O-])CCCCCN.[Fe+3] [ferrioxamine B]
clinical outcome (E. coli; 10 mg/kg with IV ampicillin and gentamicin): does not develop the clinical syndrome of hypotension and organ failure | clinical outcome (restenosis [2]; [8]): restenosis does not occur

CCC[S@](=N)(=O)CCC(N)C(=O)O (mixture of isomers) [DL-prothionine-SR-sulfoximine]
inhibition of glutamine synthetase (glutamine synthetase): did not significantly inhibit | inhibition of gamma-GCS [3]: inhibited

CS(=N)(=O)CC[C@H](N)C(=O)O (stereo partly shown) [methionine sulfoximine]
inhibition of glutamine synthetase (glutamine synthetase): potently inhibits | inhibition of gamma-GCS [3]: potently inhibits

CN(C)c1ccc2nc3ccc(=[N+](C)C)cc-3sc2c1 [methylene blue]
time to restored blood pressure (E. coli; nitrosated chloramphenicol 12.5 mg four times/day IV with methylene blue IV 5 mg/kg and fluid support): 24 h

O=[N+]([O-])O [nitrate]
clinical outcome (oral thrush): thrush resolves

interferon-gamma: cytokine inducing inducible nitric oxide synthase
clinical outcome (restenosis [2]; [8]): restenosis does not occur

C=C(CC)C(=O)c1ccc(OCC(=O)O)c(Cl)c1Cl [ethacrynic acid]
clinical outcome (restenosis [4]; [9]): symptoms improve | clinical outcome (Salmonella): symptoms resolve in two days

interleukin-1
clinical outcome (restenosis [2]; [8]): restenosis does not occur

O=[N+]([O-])[O-].[Na+] [sodium nitrate]
clinical outcome (Salmonella): symptoms resolve in two days

N[C@@H](CSN=O)C(=O)O [S-nitrosocysteine]
clinical outcome (restenosis [4]; [9]): symptoms improve | clinical outcome (restenosis [4]; BSO-releasing polymer stent and S-nitrosocysteine 100 nmol/kg intracoronary infusion): follow-up angiogram shows no restenosis | clinical outcome (restenosis [4]; S-nitrosocysteine 100 nmol/kg six times a day for one week intracoronary, 32P-implanted stent): successfully prevents restenosis | clinical outcome [5]: symptoms improve over a period of three weeks | clinical outcome (E. coli; 100 nmol/kg i.v. alone): partial remission in their disease accompanied by mild hypotension | clinical outcome (E. coli; S-nitrosocysteine continued plus desferoximine 1 gm then 0.5 gm every 4 hr for two days): relief of hypotension and complete resolution of septicemia | effect of pretreatment on later treatment ([6]; 0.2 mM pretreatment, 0.5 mM at two hours): Induces Resistance to Later Treatment with Nitrosating Agent | bacterial growth ([6]; 0.5 mM added at two hours, with or without 0.2 mM pretreatment): reduces rate of bacterial growth

C[C@@H]1[C@H](O)[C@@H](C)/C=C/C=C/C=C/C=C/C=C/C=C/C=C/[C@H](O[C@@H]2O[C@H](C)[C@@H](O)[C@H](N)[C@@H]2O)C[C@@H]2O[C@](O)(C[C@@H](O)C[C@@H](O)[C@H](O)CC[C@@H](O)C[C@@H](O)CC(=O)O[C@H]1C)C[C@H](O)[C@H]2C(=O)O [amphotericin B]
adverse effects (Histoplasma capsulatum; 1 mg/day i.v., after one week): elevated blood urea nitrogen level and other evidence of renal failure | clinical outcome (Histoplasma capsulatum; dose reduced to 0.5 mg/day): no resolution of disease

dinitrophenacyl glutathione
clinical outcome [7]: culture of the ulcer becomes sterile over three days

CC(C[C@H](N)C(=O)O)SN=O (stereo partly drawn) [S-nitroso-gamma-methyl-L-homocysteine]
clinical outcome (E. coli; septicemia and urinary tract infection, α-ethyl BSO 4 mmol/kg four times a day p.o., S-nitroso-gamma-methyl-L-homocysteine 50 μg/kg i.v., gentamicin): symptoms resolve and blood and urine cultures are negative for E. coli after two weeks

CCC(N)(CCS(C)(=N)=O)C(=O)O (racemic) [α-ethyl-DL-methionine-SR-sulfoximine]
inhibition of glutamine synthetase (glutamine synthetase): inhibited | inhibition of gamma-GCS [3]: did not significantly inhibit

CCOC(=O)/C=C\C(=O)OCC [ethyl maleate]
clinical outcome (restenosis [2]; stent coated with cyclodextran polymer with ethyl maleate attached by ester linkage): clinical restenosis does not occur

N[C@@H](Cc1ccc(N(CCCl)CCCl)cc1)C(=O)O [melphalan]
clinical outcome ([1]; po): symptoms resolve | clinical outcome (restenosis [2]; stent coated with ONO-substituted polymer with 10% melphalan attached): clinical restenosis does not occur
